For orientation: melting point means the temperature, or range, at which the solid turns liquid.

Data set [1] deals with chemokine-induced migration. Nature of the data set: Chemokine-induced migration in vitro (prior compounds). In kind it is cell-based. Particulars: compared with (S)-3-(undec-10-enoyl)-aminoglutarimide.
A short description of another data set: Stability in human serum. In kind it is in vitro ADME. Particulars: 37° C. An excerpt: As an approach to identifying such stable anlogs, various derivatives of (S)-3-(undec-10-enoyl)-aminoglutarimide have been tested for their stability in serum.
For data set [2] the following is noted: cited from earlier work.

`C=CCCCCCCCCC(=O)[C@@H]1CCCNC1=O` [(S)-3-(undec-10-enoyl)-tetrahydropyridin-2-one]: the “potency compared with the parental molecule” value in data set [1] was “considerably reduced potency”. In “Stability in human serum”, the “time completely stable in human serum” value is reported as “at least 7 days”. With `CCCCC[C@H]1CC[C@H](C(=O)N[C@H]2CCCNC(=O)C2)CC1` [Example 4, (S)-3-(trans-4′-pentylcyclohexane-1-carbonyl)amino-caprolactam], the melting point fell in the range of 182 to 184 °C.

For the compound “c(DCys-DG1n-DIle-DTrp-DLys-DG1n-DLys-DPro-DAsp-DLeu-DCys)-NH2 [NR583.14.3]”, in data set [2] (after intravenous injection), the “half-life period of clearance from blood plasma” value is “less than 30 minutes”. The oral bioavailability entry in data set [2] (in vivo, po) is “not orally bioavailable”.

The record behind these values is patent publication US8497261B2, “3-aminocaprolactam compounds for treating inflammatory disorders” (Cambridge Enterprise Limited, priority 2004, dated 2013).
